In patent US20250223268A1, “4-Methylsulfonylbenzamide Compound, Preparation Method, Herbicidal Composition And Use” (Jiangsu Flag Chemical Industry Co., Ltd., priority 2022, published 2025):

How the values were obtained:
Type in all cases: in vivo
Echinochloa crusgalli [1] = assay: Greenhouse herbicidal activity and crop safety comparison (Test Example 2)
From the text: (§1) Pre-emergence: Seeds of gramineous weeds (Echinochloa crusgalli, Echinochloa crusgalli var. zelayensis, Echinochloa phyllopogon, Eleusine indica, Digitaria sanguinalis, Leptochloa chinensis, Setaria viridis, Alopecurus japonicus Steud, Beckmannia syzigachne, Polypogon fugax, Alopecurus aequalis, Lolium multiflorum, Poa annua, Aegilops tataschii, Avena fatua, Alopecurus myosuroides, Bromus japonicus), broadleaf weeds (Eclipta prostrata, Amaranthus retroflexus, Rorippa indica, Myosoton aquaticum, Veronica didyma, Galium aparine, Solanum nigrum, Xanthium sibiricum, Conyza canadensis, Sesbania cannabina, Sagittaria trifolia), and Cyperus iria (Cyperus iria, Scirpus juncoides, Cyperus difformis, etc.) were sown in plastic pots (7 cm diameter) with nutrient soil and bottom holes. Crop seeds (including Oryza sativa subsp. indica, Oryza sativa subsp. japonica, Oryza sativa L. var. Glutinosa matsum, Triticum aestivum, Zea mays, Sorghum bicolor, Setaria italica, Glycine max, Gossypium hirsutum, Brassica napus, Arachis hypogaea) were sown in plastic pots (10 cm diameter) with nutrient soil and bottom holes. After sowing, the seeds were lightly covered with soil, and the soil was moistened via bottom water absorption. The pots were placed in a constant-temperature light-controlled growth chamber for 24 hours before soil spraying. Spraying was performed using a 3WP-2000 walking-type spray tower (produced by the Nanjing Agricultural Mechanization Institute, Ministry of Agriculture) with a spindle speed of 96 mm/r, spray height of 300 mm, effective spray width of 350 mm, spray area of 0.35 m^2, and nozzle flow rate of 390 mL/min.
(§2) After treatment, the test materials were air-dried naturally in the laboratory and then transferred to the growth chamber. Results were assessed 14-30 days later.
(§3) Post-emergence: Seeds of gramineous weeds (Echinochloa crusgalli, Echinochloa crusgalli var. zelayensis, Echinochloa phyllopogon, Eleusine indica, Digitaria sanguinalis, Leptochloa chinensis, Setaria viridis, Alopecurus japonicus Steud, Beckmannia syzigachne, Polypogon fugax, Alopecurus aequalis, Lolium multiflorum, Poa annua, Aegilops tataschii, Avena fatua, Alopecurus myosuroides, Bromus japonicus), broadleaf weeds (Eclipta prostrata, Amaranthus retroflexus, Rorippa indica, Myosoton aquaticum, Veronica didyma, Galium aparine, Solanum nigrum, Xanthium sibiricum, Conyza canadensis, Sesbania cannabina, Sagittaria trifolia), and Cyperus iria (Cyperus iria, Scirpus juncoides, Cyperus difformis, etc.) were sown in plastic pots (7 cm diameter) with nutrient soil and bottom holes. Crop seeds (including Oryza sativa subsp. indica, Oryza sativa subsp. japonica, Oryza sativa L. var. Glutinosa matsum, Triticum aestivum, Zea mays, Sorghum bicolor, Setaria italica, Glycine max, Gossypium hirsutum, Brassica napus, Arachis hypogaea) were sown in plastic pots (10 cm diameter) with nutrient soil and bottom holes. After sowing, the pots were placed in the growth chamber until the plants reached the 3-6 leaf stage for foliar spraying. Post-treatment, the materials were air-dried naturally and returned to the growth chamber. Results were assessed 14-21 days later.
(§4) • A: Fresh weight inhibition rate≥80% to 100%; • B: Fresh weight inhibition rate[…] to <80%; • C: Fresh weight inhibition rate≥40% to <60%; • D: Fresh weight inhibition rate≥20% to <40%; • E: Fresh weight inhibition rate<20%; • NT: Not tested.
(§5) Using the above method, the herbicidal activity and crop safety of the present compounds were compared with structurally similar known compounds (CK1, CK2, CK3, CK4: compounds 4-756, 4-759, 1-557, 1-563 from WO2012028579A1; CK5: compound 290-1 from WO2013087577A1; CK6: compound 1-129 from WO2011035874A1).

[2] = test system: Oryza sativa subsp. indica; assay: as above
From the text: as §1, §2, §3, §4, §5

[3] = test system: Oryza sativa subsp. japonica; assay: as above
From the text: as §1, §2, §3, §4, §5

Echinochloa crusgalli [4] = assay: Greenhouse herbicidal activity assay, post-emergence; conditions: Post-emergence test, rate 150 g a.i./hm^2, grade by fresh weight inhibition rate
In short: (§6)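 Weeds and crops grown in pots of nutrient soil in a growth chamber to the 3-6 leaf stage, then foliar-sprayed and air-dried. Fresh weight inhibition scored 14-21 days after treatment and graded A (≥80%) through E (<20%).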

Eclipta prostrata = assay: as above; conditions: Post-emergence test, rate 150 g a.i./hm^2, grade by fresh weight inhibition rate
In short: as §6

Digitaria sanguinalis = assay: as above; conditions: Post-emergence test, rate 150 g a.i./hm^2, grade by fresh weight inhibition rate
In short: as §6

Cyperus iria = assay: as above; conditions: Post-emergence test, rate 150 g a.i./hm^2, grade by fresh weight inhibition rate
In short: as §6

Leptochloa chinensis [5] = assay: as above; conditions: Post-emergence test, rate 150 g a.i./hm^2, grade by fresh weight inhibition rate
In short: as §6

Leptochloa chinensis [6] = assay: Greenhouse herbicidal activity and crop safety comparison (Test Example 2); conditions: Rate 150 g/ha
From the text: as §1, §2, §3, §4, §5

SMILES	inhibition at 150 g/ha (Echinochloa crusgalli [1]; Echinochloa crus-galli, Rate 150 g/ha, read-out: Echinochloa crusgalli, control efficacy grading (fresh weight inhibition rate)) [%]	Oryza sativa subsp. indica, grading of fresh weight inhibition rate (crop safety) ([2]; Rate 150 g/ha)	Oryza sativa subsp. japonica, grading of fresh weight inhibition rate (crop safety) ([3]; Rate 150 g/ha)	pest or weed control at 150 g/ha (Echinochloa crusgalli [4]; Echinochloa crus-galli, read-out: Control efficacy grade, Echinochloa crusgalli) [%]	pest or weed control at 150 g/ha (Eclipta prostrata; Eclipta prostrata, read-out: Control efficacy grade, Eclipta prostrata) [%]	pest or weed control at 150 g/ha (Digitaria sanguinalis; Digitaria sanguinalis, read-out: Control efficacy grade, Digitaria sanguinalis) [%]	pest or weed control at 150 g/ha (Cyperus iria; Cyperus iria, read-out: Control efficacy grade, Cyperus iria) [%]	pest or weed control at 150 g/ha (Leptochloa chinensis [5]; Dinebra chinensis, read-out: Control efficacy grade, Leptochloa chinensis) [%]	Echinochloa crusgalli, control efficacy grading (fresh weight inhibition rate) (Echinochloa crusgalli [1]; Rate 150 g/ha)	Control efficacy grade, Echinochloa crusgalli (Echinochloa crusgalli [4])	Control efficacy grade, Eclipta prostrata (Eclipta prostrata)	Control efficacy grade, Digitaria sanguinalis (Digitaria sanguinalis)	Control efficacy grade, Cyperus iria (Cyperus iria)	Control efficacy grade, Leptochloa chinensis (Leptochloa chinensis [5])	Echinochloa crusgalli, control efficacy grading (fresh weight inhibition rate) (Echinochloa crusgalli [1]; Rate 250 g/ha)	Oryza sativa subsp. indica, grading of fresh weight inhibition rate (crop safety) ([2]; Rate 250 g/ha)	Oryza sativa subsp. japonica, grading of fresh weight inhibition rate (crop safety) ([3]; Rate 250 g/ha)	Leptochloa chinensis, control efficacy grading (fresh weight inhibition rate) (Leptochloa chinensis [6])
CCCS(=O)(=O)c1c(S(C)(=O)=O)ccc(C(=O)Nc2nnnn2C)c1Cl [Compound 1-5, 2-chloro-N-(1-methyl-1H-tetrazol-5-yl)-4-(methylsulfonyl)-3-(propylsulfonyl)benzamide]	80 to 100	E (Fresh weight inhibition rate<20%)	E (Fresh weight inhibition rate<20%)	80 to 100	80 to 100	80 to 100	80 to 100	80 to 100	–	–	–	–	–	–	–	–	–	–
CC(C)S(=O)(=O)c1c(S(C)(=O)=O)ccc(C(=O)Nc2nnnn2C)c1Cl [Compound 1-10]	–	E (Fresh weight inhibition rate<20%)	E (Fresh weight inhibition rate<20%)	–	–	–	–	–	A (Fresh weight inhibition rate≥80% to 100%)	A (Fresh weight inhibition rate≥80% to 100%)	A (Fresh weight inhibition rate≥80% to 100%)	A (Fresh weight inhibition rate≥80% to 100%)	A (Fresh weight inhibition rate≥80% to 100%)	A (Fresh weight inhibition rate≥80% to 100%)	–	–	–	–
Cn1nnnc1NC(=O)c1ccc(S(C)(=O)=O)c(S(=O)(=O)CC2CC2)c1Cl [Compound 1-31]	–	E (Fresh weight inhibition rate<20%)	E (Fresh weight inhibition rate<20%)	–	–	–	–	–	A (Fresh weight inhibition rate≥80% to 100%)	A (Fresh weight inhibition rate≥80% to 100%)	A (Fresh weight inhibition rate≥80% to 100%)	A (Fresh weight inhibition rate≥80% to 100%)	A (Fresh weight inhibition rate≥80% to 100%)	A (Fresh weight inhibition rate≥80% to 100%)	–	–	–	–
Cn1nnnc1NC(=O)c1ccc(S(C)(=O)=O)c(S(=O)(=O)C2CC2)c1Cl [Compound 1-36]	–	E (Fresh weight inhibition rate<20%)	E (Fresh weight inhibition rate<20%)	–	–	–	–	–	A (Fresh weight inhibition rate≥80% to 100%)	A (Fresh weight inhibition rate≥80% to 100%)	A (Fresh weight inhibition rate≥80% to 100%)	A (Fresh weight inhibition rate≥80% to 100%)	A (Fresh weight inhibition rate≥80% to 100%)	A (Fresh weight inhibition rate≥80% to 100%)	–	–	–	–
C=CCS(=O)(=O)c1c(S(C)(=O)=O)ccc(C(=O)Nc2nnnn2C)c1Cl [Compound 1-71]	–	–	–	–	–	–	–	–	–	A (Fresh weight inhibition rate≥80% to 100%)	A (Fresh weight inhibition rate≥80% to 100%)	A (Fresh weight inhibition rate≥80% to 100%)	A (Fresh weight inhibition rate≥80% to 100%)	A (Fresh weight inhibition rate≥80% to 100%)	A (Fresh weight inhibition rate≥80% to 100%)	E (Fresh weight inhibition rate<20%)	E (Fresh weight inhibition rate<20%)	–
Cc1nnc(NC(=O)c2ccc(S(C)(=O)=O)c(S(=O)(=O)CCCl)c2Cl)o1 [Compound 3-216]	–	E (Fresh weight inhibition rate<20%)	E (Fresh weight inhibition rate<20%)	–	–	–	–	–	–	–	–	–	–	A (Fresh weight inhibition rate≥80% to 100%)	–	–	–	A (Fresh weight inhibition rate≥80% to 100%)
CC(C)c1nnc(NC(=O)c2ccc(S(C)(=O)=O)c(S(=O)(=O)C3CC3)c2Cl)o1 [Compound 3-539]	–	E (Fresh weight inhibition rate<20%)	E (Fresh weight inhibition rate<20%)	–	–	–	–	–	–	B (Fresh weight inhibition rate≥260% to <80%)	–	B (Fresh weight inhibition rate≥260% to <80%)	B (Fresh weight inhibition rate≥260% to <80%)	A (Fresh weight inhibition rate≥80% to 100%)	–	–	–	A (Fresh weight inhibition rate≥80% to 100%)
CC(C)c1nnc(NC(=O)c2ccc(S(C)(=O)=O)c(S(=O)(=O)C3CCC3)c2Cl)o1 [Compound 3-544]	–	E (Fresh weight inhibition rate<20%)	E (Fresh weight inhibition rate<20%)	–	–	–	–	–	–	B (Fresh weight inhibition rate≥260% to <80%)	A (Fresh weight inhibition rate≥80% to 100%)	–	A (Fresh weight inhibition rate≥80% to 100%)	A (Fresh weight inhibition rate≥80% to 100%)	–	–	–	A (Fresh weight inhibition rate≥80% to 100%)
CC(C)c1nnc(NC(=O)c2ccc(S(C)(=O)=O)c(S(=O)(=O)C3CCCC3)c2Cl)o1 [Compound 3-549]	–	E (Fresh weight inhibition rate<20%)	E (Fresh weight inhibition rate<20%)	–	–	–	–	–	–	–	A (Fresh weight inhibition rate≥80% to 100%)	–	A (Fresh weight inhibition rate≥80% to 100%)	A (Fresh weight inhibition rate≥80% to 100%)	–	–	–	A (Fresh weight inhibition rate≥80% to 100%)
CS(=O)(=O)c1ccc(C(=O)Nc2nnc(C3CC3)o2)c(Cl)c1S(=O)(=O)C1CCCC1 [Compound 3-665]	–	E (Fresh weight inhibition rate<20%)	E (Fresh weight inhibition rate<20%)	–	–	–	–	–	–	–	A (Fresh weight inhibition rate≥80% to 100%)	–	B (Fresh weight inhibition rate≥260% to <80%)	A (Fresh weight inhibition rate≥80% to 100%)	–	–	–	A (Fresh weight inhibition rate≥80% to 100%)
